By Ki is commonly meant the equilibrium dissociation constant of an inhibitor or competing ligand from its target. A high value points to weaker binding.

These results are taken from BindingDB's records for PubMed 11303071 (Banyu Pharmaceutical, 2001).

The target in test [1] is T1, Muscarinic acetylcholine receptor M4 (Homo sapiens, UniProt P08173).
T1 sequence (P08173 whole entry): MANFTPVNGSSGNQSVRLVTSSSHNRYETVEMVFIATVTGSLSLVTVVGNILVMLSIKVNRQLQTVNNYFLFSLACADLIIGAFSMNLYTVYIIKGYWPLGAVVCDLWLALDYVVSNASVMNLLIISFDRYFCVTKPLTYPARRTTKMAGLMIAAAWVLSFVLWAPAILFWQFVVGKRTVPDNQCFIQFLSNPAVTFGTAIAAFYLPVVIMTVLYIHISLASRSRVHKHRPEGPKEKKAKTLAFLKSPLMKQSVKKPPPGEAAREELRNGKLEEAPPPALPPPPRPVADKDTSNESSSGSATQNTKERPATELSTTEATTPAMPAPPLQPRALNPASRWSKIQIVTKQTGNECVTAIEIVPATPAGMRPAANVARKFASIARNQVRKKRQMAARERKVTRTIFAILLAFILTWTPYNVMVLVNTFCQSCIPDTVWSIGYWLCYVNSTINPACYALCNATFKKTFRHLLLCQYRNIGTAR

Test [2] concerns the target T2, Muscarinic acetylcholine receptor M5 (Homo sapiens, UniProt P08912).
T2 sequence (P08912 whole entry): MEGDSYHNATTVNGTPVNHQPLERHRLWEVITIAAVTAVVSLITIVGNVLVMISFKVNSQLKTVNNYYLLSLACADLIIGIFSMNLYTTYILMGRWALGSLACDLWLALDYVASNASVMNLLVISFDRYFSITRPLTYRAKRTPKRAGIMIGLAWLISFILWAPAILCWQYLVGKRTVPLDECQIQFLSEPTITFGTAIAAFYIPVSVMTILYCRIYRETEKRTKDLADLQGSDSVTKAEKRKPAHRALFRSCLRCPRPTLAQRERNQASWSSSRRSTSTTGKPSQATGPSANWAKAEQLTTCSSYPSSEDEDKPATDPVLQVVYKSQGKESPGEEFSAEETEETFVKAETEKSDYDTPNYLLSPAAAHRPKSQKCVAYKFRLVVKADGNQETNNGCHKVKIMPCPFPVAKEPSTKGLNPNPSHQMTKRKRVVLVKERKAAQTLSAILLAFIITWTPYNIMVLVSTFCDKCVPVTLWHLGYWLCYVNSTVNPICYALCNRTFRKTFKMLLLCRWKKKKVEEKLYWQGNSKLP

Test [3] deals with Muscarinic acetylcholine receptor M3 (Rattus norvegicus, UniProt P08483).
Sequence of Muscarinic acetylcholine receptor M3 (P08483 whole entry): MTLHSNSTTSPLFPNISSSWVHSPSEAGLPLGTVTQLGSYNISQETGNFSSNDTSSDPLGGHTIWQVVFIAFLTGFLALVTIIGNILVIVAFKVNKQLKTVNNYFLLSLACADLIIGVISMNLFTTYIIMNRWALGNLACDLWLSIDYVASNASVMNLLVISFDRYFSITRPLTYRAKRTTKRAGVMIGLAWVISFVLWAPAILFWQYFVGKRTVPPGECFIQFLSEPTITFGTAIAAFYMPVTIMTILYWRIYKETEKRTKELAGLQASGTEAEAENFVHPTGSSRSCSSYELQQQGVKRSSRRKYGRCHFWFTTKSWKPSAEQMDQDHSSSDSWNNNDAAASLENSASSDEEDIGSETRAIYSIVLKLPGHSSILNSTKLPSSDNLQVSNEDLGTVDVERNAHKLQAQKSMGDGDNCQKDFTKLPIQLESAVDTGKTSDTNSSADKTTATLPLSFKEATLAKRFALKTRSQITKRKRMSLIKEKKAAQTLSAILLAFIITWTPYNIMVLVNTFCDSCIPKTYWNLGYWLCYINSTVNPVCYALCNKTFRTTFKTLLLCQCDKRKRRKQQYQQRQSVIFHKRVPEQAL
In test [4] the target is T3, Muscarinic acetylcholine receptor M2 (Homo sapiens, UniProt P08172).
T3 sequence (P08172 whole entry): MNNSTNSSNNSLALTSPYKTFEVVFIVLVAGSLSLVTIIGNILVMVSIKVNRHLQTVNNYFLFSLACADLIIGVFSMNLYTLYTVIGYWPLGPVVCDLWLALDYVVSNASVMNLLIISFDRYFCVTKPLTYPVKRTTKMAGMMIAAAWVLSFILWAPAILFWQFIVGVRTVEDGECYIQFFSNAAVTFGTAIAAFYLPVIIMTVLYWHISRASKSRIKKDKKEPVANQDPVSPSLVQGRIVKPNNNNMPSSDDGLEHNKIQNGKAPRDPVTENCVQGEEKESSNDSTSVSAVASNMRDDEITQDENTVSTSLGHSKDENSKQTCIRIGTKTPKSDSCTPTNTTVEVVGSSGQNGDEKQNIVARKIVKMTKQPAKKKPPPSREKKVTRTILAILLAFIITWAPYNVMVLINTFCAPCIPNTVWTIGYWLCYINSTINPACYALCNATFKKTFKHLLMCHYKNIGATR

`NC(=O)C(c1ccccc1)(c1ccccc1)[C@@H]1CCN(CCc2ccc3c(c2)CCO3)C1` [Enablex]: the Ki in test [1] is 8.6 nM; in test [2] it was 2.3 nM.

Regarding `NC1=COC=C(CN2CCC(NC(=O)[C@](O)(c3ccccc3)[C@@H]3CCC(F)(F)C3)CC2)N1` [Compound A], the Ki in test [3] amounted to 2.6 nM; in test [4] it was 540 nM; in test [1] it was 15 nM; in test [2], 7.7 nM.
